Assay [1] deals with APESV. The assay is described as follows: greenhouse pre-emergence herbicidal test. It counts as in vivo, Apera spica-venti. Conditions: pre-emergence method, application rate 1,000 kg/ha; scale from 0 to 100. From the text:
(§1) The culture containers used were plastic flowerpots containing loamy sand with approximately 3.0% of humus as the substrate. The seeds of the test plants were sown separately for each species.
(§2) For the pre-emergence treatment, the active ingredients, which had been suspended or emulsified in water, were applied directly after sowing by means of finely distributing nozzles. The containers were irrigated gently to promote germination and growth and subsequently covered with transparent plastic hoods until the test plants had rooted. This cover caused uniform germination of the test plants, unless this had been impaired by the active ingredients. For the post-emergence treatment, the test plants were first grown to a height of 3 to 15 cm, depending on the plant habit, and only then treated with the active ingredients which had been suspended or emulsified in water. For this purpose, the test plants were either sown directly and grown in the same containers, or they were first grown separately as seedlings and transplanted into the test containers a few days prior to treatment.
(§3) Depending on the species, the test plants were kept at 10-25° C. or 20-35° C., respectively. The test period extended over 2 to 4 weeks. During this time, the test plants were tended, and their response to the individual treatments was evaluated.
(§4) Evaluation was carried out using a scale from 0 to 100. […]

Assay [2] deals with ECHCG. Briefly: greenhouse pre-emergence herbicidal test. The format is in vivo, Echinocloa crus-galli. As to conditions: pre-emergence method, application rate 1,000 kg/ha; scale from 0 to 100.
Source text: as §1, §2, §3, §4

Assay [3] concerns AMARE. The assay is described as follows: greenhouse post-emergence herbicidal test. As to conditions: post-emergence method, application rate 1,000 kg/ha; scale from 0 to 100. It counts as in vivo, Amaranthus retroflexus.
Source text: as §1, §2, §3, §4

The test system of assay [4] is AVEFA. The assay is described as follows: greenhouse post-emergence herbicidal test. The format is in vivo, Avena fatua. As to conditions: post-emergence method, application rate 1,000 kg/ha; scale from 0 to 100.
Source text: as §1, §2, §3, §4

Assay [5] deals with AMARE. The assay is described as follows: greenhouse pre-emergence herbicidal test. It counts as in vivo, Amaranthus retroflexus. As to conditions: pre-emergence method, application rate 1,000 kg/ha; scale from 0 to 100.
Source text: as §1, §2, §3, §4

Regarding “ethyl 4-(3,5-dichlorophenyl)-2-methyl-3H-furan-2-carboxylic acid [compound 14]”, in assay [1], the “herbicidal activity against APESV” value was “very good herbicidal activity (a very good herbicidal activity is given at values of 90 to 100)”. Besides, in assay [2], the “herbicidal activity against ECHCG” value is listed as “very good herbicidal activity (a very good herbicidal activity is given at values of 90 to 100)”.

Consider `CCOC(=O)C1CC(c2cc(F)cc(F)c2)=CO1` (stereo not drawn) [compound 11, ethyl 4-(3,5-difluorophenyl)-2,3-dihydrofuran-2-carboxylate], for which the “herbicidal activity against AMARE” value in assay [3] was “very good herbicidal activity (a very good herbicidal activity is given at values of 90 to 100)”. For `O=C(O)C1(C(F)(F)F)CC(c2cc(F)cc(F)c2)=CO1` (stereo not drawn) [compound 17, 4-(3,5-difluorophenyl)-2-(trifluoromethyl)-3H-furan-2-carboxylic acid], in assay [4], the “herbicidal activity against AVEFA” value is reported as “very good herbicidal activity (a very good herbicidal activity is given at values of 90 to 100)”.

Take “ethyl 4-(3,5-difluorophenyl)-2-methyl-3H-furan-2-carboxylic acid [compound 12]”: in assay [5], the “herbicidal activity against AMARE” value is reported as “good herbicidal activity (A good herbicidal activity is given at values of 65 to 90)”. The “herbicidal activity against ECHCG” value in assay [2] was “good herbicidal activity (A good herbicidal activity is given at values of 65 to 90)”.

The values are drawn from US20240294484A1, “HERBICIDAL ARYLDIHYDROFURANE CARBOXYLATES” (BASF SE, priority 2021, published 2024).
